Consider two molecules from US20230302159A1, “COMPOUNDS AND COMPOSITIONS FOR TUMOR DETECTION AND SURGICAL GUIDANCE” (Cornell University, priority 2020, published 2023).

The conditions of data set [1]: in water; cited from earlier work.
The nature of data set [2]: Optical properties of the CypH dyes: absorbance maximum and extinction coefficient in EtOH (Table 1). The data set is classed as physicochemical. As for the experimental part:
(§1) Characterization: All new CypH dyes were characterized by proton NMR and mass spectrometry to confirm identity. NMR data was consistent with the structure and mass spectrometry results gave the expected mass of the dye±0.5 amu. An HPLC method was developed (see below) and used to assess dye purity. […] Retention times on the column generally correlated with lipophilicity of the dyes with water soluble dyes containing sulfate groups eluting out earlier (@10.6 min for CypH-3, 6, 9) than CypH-1 (@11.9 min) and the more lipophilic dyes later. Optical properties of the dyes, acid dissociation constants and solubilities were also determined. Synthetic intermediates were also characterized by proton NMR.

Data set [3] in a line: Solubility of the CypH dyes (Table 1). The data set is classed as physicochemical. The conditions noted are these: in EtOH. As for the experimental part: as §1
Data set [4] can be described thus: Fluorescence properties of the CypH dyes at pH 5.0 and pH 7.5 (Table 2). It counts as physicochemical. From the text:
The excitation and emission maxima of CypH-1 are 760 and 777 nm, respectively. The signal intensity ratio of pH 5 over pH 7.5 was about 10. The meso-bridge ring size, lipophilicity and electro-density of CypH-1 was modified to provide better optical property. […] The best compound from this group was CypH-5 whose fluorescence ratio of pH 5.0/pH 7.5 was increased to 22. Based on this initial structure and property relationship, the second round of 10 new analogs were designed using CypH-5 as the core, focusing on modifying the electron density on the aniline ring and the indolinium ring. Various alkyl groups, such as methyl, ethyl, propyl, isopropyl and their combinations, were applied to these two positions.
The CypH analogs with other longer alkyl chains had much lower background fluorescence. […] Among them, CypH-11, which has a methyl isopropyl aniline and an isopropyl group on the indolinium ring, gave a 112-fold enhancement in fluorescence signal. CypH-11 has absorbance and emission maxima at 766 nm and 785 nm, respectively (FIG. 4) and was selected as the lead compound (vide infra).

Take `CC1(C)C(/C=C/C=C/C=C/C=C2\N(CCCCS(=O)(=O)O)c3ccc4ccccc4c3C2(C)C)=[N+](CCCCS(=O)(=O)[O-])c2ccc3ccccc3c21` [indocyanine green]: the “quantum yield (Φ) of standard compound” value in data set [1] was 1.2%.
With `CCN(CC)c1ccc(OC2=C(/C=C/C3=[N+](C)c4ccccc4C3(C)C)CCC/C2=C\C=C2\N(C)c3ccccc3C2(C)C)cc1.[Cl-]` [CypH-14], the “Ex Coeff (M^−1cm^−1) @ Abs Max” value in data set [2] (at absorbance maximum) is recorded as 215,800 M^−1cm^−1. Besides, in data set [2] (in EtOH), the “Abs. Max (nm) in EtOH” value was determined as 767 nm. The Solubility in data set [3] is >1 mM in. Also, in data set [4] (fluorescence intensity pH 5.0 over pH 7.5), the “Ratio Intensity pH 5.0/7.5” value worked out at 5.9. For the same molecule, in data set [4] (pH 5.0), the “FL Intensity pH 5.0” value is given as 5627 and the “FL Max (nm) pH 5.0” value is reported as 786 nm. In data set [4] (pH 7.5), the “FL Intensity pH 7.5” value was found to be 958 and the “FL Max (nm) pH 7.5” value was found to be 784 nm.
